Results on 24 compounds are retold here after patent publication US20190275027A1 (priority 2018, published 2019).

SMILES strings stand for the structures. Values joined by “and” are separate entries in the source; they are usually repeats but may differ in a detail not shown here. Identical values can stand only once. Like-named read-outs stand apart in the source and are kept apart here.

In data set [1] the test system is wild type Ebola virus, Mayinga strain. Nature of the data set: microbe, parasite or virus in culture. The class given is cell-based. As to conditions: for IC50: Zaire ebolavirus, Huh-7, 24 h, read-out: EBOV IC50.
Data set [2] has as its system MARV. Put plainly: organism not typed. The class given is cell-based, Marburg virus. As to conditions: read-out: MARV IC50.
Data set [3] can be described thus: physchem. As to conditions: pH 7.4, aqueous buffer, kinetic from dmso stock.
Data set [4] relates to EBOV virus. Also noted: species or system BALB/c mice. As to conditions: mouse, in vivo.
Data set [5] concerns EBOV. Also noted: species or system murine. The conditions noted are these: mouse, in vivo.

A word on the IC50: it is the concentration that inhibits the measured activity by half. As a reminder, the solubility is how much of the substance goes into solution per volume. Low values mean little dissolved substance, high ones much dissolved substance. For the compound `COc1ccc2c(c1)CCN(C)[C@@H]2Cc1ccc(Oc2ccc(C[C@@H]3c4cc(OC)c(OC)cc4CCN3C)cn2)c(OC)c1` [Compound 5], the concentration for half-maximal inhibition (IC50) in data set [1] is 0.505 ± 0.032 µM; in data set [2], 0.414 ± 0.07 µM. Also, in data set [3], the solubility is greater than 100 µM.
`COc1cc2c(cc1OC)[C@@H](Cc1cccc(Oc3cc(C[C@@H]4c5cc(OC)c(OC)cc5CCN4C)ccc3OC)c1)N(C)CC2` [Compound 51]: the 50% inhibitory concentration (IC50) in data set [1] was found to be 1.09 ± 0.072 µM; in data set [2] it was 1.18 ± 0.179 µM.
As for `COc1ccc2c(c1)CCN(C)[C@@H]2Cc1cccc(Oc2ccc(C[C@@H]3c4cc(OC)c(OC)cc4CCN3C)cc2)c1` [Compound B4-21], the IC50 is 0.424 ± 0.082 µM in data set [1] and 0.467 ± 0.093 µM in data set [2].
Regarding `CN1CCc2cc3c(cc2[C@H]1Cc1cccc(Oc2cccc(C[C@@H]4c5cc6c(cc5CCN4C)OCO6)c2)c1)OCO3` [Compound B3-35], the values for the IC50 in data set [1] and in data set [2] were 0.789 ± 0.097 µM and 0.537 ± 0.06 µM, respectively.
Regarding `COc1cc2c(cc1OC)[C@@H](Cc1ccc(Oc3cccc(C[C@@H]4c5cc(OC)c(OC)cc5CCN4C)c3)nc1)N(C)CC2` [Compound 48], the results for the concentration for half-maximal inhibition (IC50) in data set [1] and in data set [2] were 0.875 ± 0.11 µM and 1.49 ± 0.32 µM, respectively.
For the compound `COc1ccc2c(c1)CCN(C)[C@@H]2Cc1ccc(Oc2ccc(C[C@@H]3c4ccc(OC)cc4CCN3C)cc2)cc1` [B4-14^RR], in data set [1], the “EBOV activity (in words)” value is recorded as “good activity”.
For `COc1ccc2c(c1)CCN(C)[C@@H]2Cc1cccc(Oc2ccc(C[C@@H]3c4cc5c(cc4CCN3C)OCO5)cc2)c1` [Compound B4-31], the concentration for half-maximal inhibition (IC50) is 0.775 ± 0.156 µM in data set [1] and 1.19 ± 0.105 µM in data set [2].
As to `COc1cc2c(cc1OC)[C@@H](Cc1ccc(Oc3cccc(C[C@@H]4c5cc(OC)c(OC)cc5CCN4C)c3)cc1)N(C)CC2` [Compound B4-26], the values for the 50% inhibitory concentration (IC50) in data set [1] and in data set [2] were 0.53 ± 0.081 µM and 0.77 ± 0.089 µM, respectively.
Turning to `COc1ccc2c(c1)CCN(C)[C@@H]2Cc1ccc(Oc2ccc(C[C@@H]3c4ccc(OC)cc4CCN3C)cc2OC)cc1` [Compound B4-17], the IC50 in data set [1] worked out at 0.134 ± 0.016 µM; in data set [2], 0.133 ± 0.026 µM.
`COc1cc2c(cc1OC)[C@@H](Cc1ccc(OC)c(Oc3cc(C[C@@H]4c5cc(OC)c(OC)cc5CCN4C)ccc3OC)c1)N(C)CC2` [Compound 3]: the IC50 in data set [1] was 1.22 ± 0.119 µM. Further, the 50% inhibitory concentration (IC50) in data set [2] was determined as 1.1 ± 0.222 µM. Further, in data set [3], the solubility is greater than 100 µM. For the same compound, in data set [4], the “% Survival” value amounted to 71%, the “Efficacy against Ebola virus challenge (in words)” value is given as “good efficacy” and the Survival was 5/7.
Consider `COc1ccc(C[C@@H]2c3cc4c(cc3CCN2C)OCO4)cc1Oc1cc(C[C@@H]2c3cc4c(cc3CCN2C)OCO4)ccc1OC` [Compound 52], for which the values for the concentration for half-maximal inhibition (IC50) in data set [1] and in data set [2] were 0.615 ± 0.04 µM and 0.585 ± 0.154 µM, respectively.
The like results for `COc1ccc2c(c1)CCN(C)[C@@H]2Cc1cccc(Oc2cc(C[C@@H]3c4ccc(OC)cc4CCN3C)ccc2OC)c1` [Compound B3-12] were, in that order, 1.11 ± 0.179 µM and 0.839 ± 0.158 µM.
For `COc1ccc2c(c1)CCN(C)[C@@H]2Cc1ccc(OC)c(Oc2cc(C[C@@H]3c4ccc(OC)cc4CCN3C)ccc2OC)c1` [Compound B3-42], the IC50 in data set [1] is 0.617 ± 0.045 µM; in data set [2], 0.418 ± 0.047 µM.
On to `COc1cc2c(cc1OC)[C@@H](Cc1cccc(Oc3cccc(C[C@@H]4c5cc6c(cc5CCN4C)OCO6)c3)c1)N(C)CC2` [B3-36^R,R], for which the IC50 in data set [1] was 0.413 ± 0.051 µM; in data set [2], 0.495 ± 0.066 µM.
With `COc1ccc2c(c1)CCN(C)[C@@H]2Cc1ccc(Oc2ccc(C[C@@H]3c4cc5c(cc4CCN3C)OCO5)cc2)cc1` [Compound B4-34], the figures for the IC50 in data set [1] and in data set [2] were 0.065 ± 0.016 µM and 0.148 ± 0.048 µM, respectively.
`COc1cc2c(cc1OC)[C@@H](Cc1ccc(Oc3cc(C[C@@H]4c5cc(OC)c(OC)cc5CCN4C)ccc3OC)c(OC)c1)N(C)CC2` [Compound 2]: the “% Survival” value in data set [5] is 57% and 43%; in data set [4], 100%. Besides, the entries for the “Efficacy (in words)” value in data set [5] and in data set [5] (5 mg/kg) were “good efficacy” and “moderate efficacy”, respectively. Besides, the Survival in data set [5] was 4/7 and 3/7; in data set [4], 7/7. The IC50 in data set [1] came to 1.05 ± 0.09 µM; in data set [2], 1.24 ± 0.269 µM. This compound displayed a solubility in data set [3] greater than 100 µM. Moreover, the “Efficacy against Ebola virus challenge (in words)” value in data set [4] was “statistically significant improvement when compared to TETN and saline”.
`COc1cc2c(cc1OC)[C@@H](Cc1ccc(Oc3ccc(C[C@@H]4c5cc(OC)c(OC)cc5CCN4C)cc3OC)nc1)N(C)CC2` [Compound 4]: the IC50 in data set [1] stood at 0.446 ± 0.057 µM. Also, the IC50 in data set [2] is 0.566 ± 0.108 µM. In data set [3], this compound registered a solubility greater than 100 µM. Besides, in data set [4], the “% Survival” value is recorded as 71%, the “Efficacy against Ebola virus challenge (in words)” value was “good efficacy” and the Survival is on record as 5/7.
As for `COc1cc2c(cc1OC)[C@@H](Cc1cccc(Oc3ccc(C[C@@H]4c5cc6c(cc5CCN4C)OCO6)cc3)c1)N(C)CC2` [Compound B4-36], the IC50 was determined as 0.415 ± 0.043 µM in data set [1] and 0.487 ± 0.088 µM in data set [2].
As for `COc1ccc2cc1Oc1ccc(cc1)C[C@H]1c3cc(c(OC)cc3CCN1C)Oc1c(OC)c(OC)cc3c1[C@H](C2)N(C)CC3` [TETN, tetrandrine, reference compound], the IC50 in data set [1] was 0.292 ± 0.031 µM. For the same compound, in data set [2], the IC50 came out at 0.37 ± 0.095 µM. In data set [3], the solubility was greater than 100 µM. For the same compound, in data set [4], the “% Survival” value was 57% and the Survival was 4/7.
Consider `COc1cc(C[C@@H]2c3cc4c(cc3CCN2C)OCO4)ccc1Oc1ccc(C[C@@H]2c3cc4c(cc3CCN2C)OCO4)cc1OC` [Compound 45], for which the IC50 in data set [1] stood at 0.372 ± 0.034 µM; in data set [2] it was 0.339 ± 0.056 µM.
In the case of `COc1ccc2c(c1)CCN(C)[C@@H]2Cc1ccc(Oc2ccc(C[C@@H]3c4cc(OC)c(OC)cc4CCN3C)cc2)cc1` [Compound B4-24], the 50% inhibitory concentration (IC50) in data set [1] stood at 0.125 ± 0.026 µM; in data set [2] it was 0.13 ± 0.049 µM.
On to `COc1ccc2c(c1)CCN(C(C)C)[C@@H]2Cc1ccc(Oc2ccc(C[C@@H]3c4ccc(OC)cc4CCN3C(C)C)cc2)cc1` [Compound 41], for which the IC50 turned out to be 0.249 ± 0.019 µM in data set [1] and 0.188 ± 0.04 µM in data set [2].
Turning to `COc1cc2c(cc1OC)[C@@H](Cc1ccc(Oc3ccc(C[C@@H]4c5cc(OC)c(OC)cc5CCN4C)cc3OC)c(OC)c1)N(C)CC2` [Compound 1], in data set [5], the “Efficacy (in words)” value is listed as “good efficacy”; the Survival is 4/7 and 0/7. Also, the half-maximal inhibitory concentration (IC50) in data set [1] is 0.73 ± 0.06 µM. The IC50 in data set [2] was 0.506 ± 0.087 µM. Also, in data set [3], the solubility was greater than 100 µM. In data set [4], the “% Survival” value is recorded as 100%; the “Efficacy against Ebola virus challenge (in words)” value is “statistically significant improvement when compared to TETN and saline”; the Survival is recorded as 7/7.
As to `COc1ccc2c(c1)CCN(Cc1ccccc1)[C@@H]2Cc1ccc(Oc2ccc(C[C@@H]3c4ccc(OC)cc4CCN3Cc3ccccc3)cc2)cc1` [Compound 42], the half-inhibitory concentration (IC50) in data set [1] and in data set [2] was greater than 1 µM each time.
